The target in one data set is B-Raf (Homo sapiens, UniProt P15056). The data set is described as follows: B-Raf biochemical kinase inhibition (AlphaScreen, biotin-MEK1 substrate). The note with it: 100 μM ATP. In short, it runs like this: (§1)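 Serial 1:3 dilutions of compound (0.1 mM DMSO stock, eight points) were added first, then ATP to start the reaction at 100 μM final.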
(Alpha assays give light when donor and acceptor beads are brought close together.)

The next data set has as its system Colo205 xenograft. The data set is described as follows: Colo205 xenograft mouse model, tumor growth inhibition. It is filed as in vivo. To be noted: COLO 205, 336 h, female nu/nu mice, 10 mg/kg daily for fourteen days.
Another data set deals with CYP3A4(BQ) (Homo sapiens, UniProt P08684). Briefly: CYP3A4(BQ) inhibition (fluorescent substrate). The note with it: read-out: Cyp IC50 3A4(BQ). It is filed as in vitro ADME. The essentials: (§2)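 Compound, from a 100 mM DMSO stock and diluted 1:1 over 10 points in co-factor mix, was incubated at 37° C with enzyme and a known substrate. Decrease in fluorescent product against concentration gave the IC50.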
CYP3A4(BQ), sequence (P08684 whole entry): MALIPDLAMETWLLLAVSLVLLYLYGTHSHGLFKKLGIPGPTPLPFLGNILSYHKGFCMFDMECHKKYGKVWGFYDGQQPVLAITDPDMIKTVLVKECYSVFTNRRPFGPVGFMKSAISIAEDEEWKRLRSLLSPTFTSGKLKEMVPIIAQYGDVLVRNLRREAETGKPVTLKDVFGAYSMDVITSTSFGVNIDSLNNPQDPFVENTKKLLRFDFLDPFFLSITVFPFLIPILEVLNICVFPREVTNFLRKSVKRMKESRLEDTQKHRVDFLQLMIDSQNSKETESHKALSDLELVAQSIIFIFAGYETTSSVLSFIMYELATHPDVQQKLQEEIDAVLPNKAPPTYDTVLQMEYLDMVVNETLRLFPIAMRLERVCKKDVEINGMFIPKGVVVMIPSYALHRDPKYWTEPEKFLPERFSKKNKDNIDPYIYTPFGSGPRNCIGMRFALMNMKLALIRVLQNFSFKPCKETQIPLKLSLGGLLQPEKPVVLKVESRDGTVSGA

Data set [1] in a line: Relative solubility by turbidity in aqueous buffers of varying pH. In kind it is physicochemical. In short, it runs like this:
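Turbidity endpoint: concentration where optical density at 490, 535 and 650 nm exceeds 0.01, three-wavelength average used. Buffers at pH 1.5, 4.5, 6.8 and 7.4; DMSO serial dilutions of 25 mM stock spiked 1 μL into 99 μL buffer. Low <31.3, moderate 31.3–250, high >250 μM.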

In the next data set the target is T1, A-Raf (Homo sapiens, UniProt P10398).
T1 sequence (P10398 1-606): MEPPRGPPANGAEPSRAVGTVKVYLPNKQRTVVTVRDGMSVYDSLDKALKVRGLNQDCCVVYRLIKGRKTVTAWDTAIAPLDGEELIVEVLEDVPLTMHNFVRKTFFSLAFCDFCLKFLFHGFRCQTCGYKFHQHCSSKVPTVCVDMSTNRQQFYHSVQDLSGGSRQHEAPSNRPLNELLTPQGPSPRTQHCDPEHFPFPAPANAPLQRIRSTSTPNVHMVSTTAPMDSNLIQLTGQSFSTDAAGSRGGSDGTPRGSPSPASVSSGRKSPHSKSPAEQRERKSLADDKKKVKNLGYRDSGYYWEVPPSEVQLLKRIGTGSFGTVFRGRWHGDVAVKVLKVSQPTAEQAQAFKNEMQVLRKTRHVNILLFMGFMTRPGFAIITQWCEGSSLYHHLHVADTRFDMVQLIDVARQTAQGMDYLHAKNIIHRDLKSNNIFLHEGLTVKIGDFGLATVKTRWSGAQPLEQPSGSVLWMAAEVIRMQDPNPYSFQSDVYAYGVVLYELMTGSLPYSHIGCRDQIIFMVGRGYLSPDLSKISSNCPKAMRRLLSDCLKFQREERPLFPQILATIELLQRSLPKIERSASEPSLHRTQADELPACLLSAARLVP
Briefly: A-Raf biochemical kinase inhibition (AlphaScreen, biotin-MEK1 substrate). To be noted: 100 μM ATP. The essentials:
as §1

A further data set deals with CYP3A4(BFC) (Homo sapiens, UniProt P08684). Briefly: CYP3A4(BFC) inhibition (fluorescent substrate). In kind it is in vitro ADME. The note with it: read-out: Cyp IC50 3A4(BFC). The essentials:
as §2

The target in a further data set is c-Raf-1 (Homo sapiens, UniProt P04049). Briefly: c-Raf-1 biochemical kinase inhibition (AlphaScreen, biotin-MEK1 substrate). To be noted: 100 μM ATP. In short, it runs like this: as §1
c-Raf-1, sequence (P04049 whole entry): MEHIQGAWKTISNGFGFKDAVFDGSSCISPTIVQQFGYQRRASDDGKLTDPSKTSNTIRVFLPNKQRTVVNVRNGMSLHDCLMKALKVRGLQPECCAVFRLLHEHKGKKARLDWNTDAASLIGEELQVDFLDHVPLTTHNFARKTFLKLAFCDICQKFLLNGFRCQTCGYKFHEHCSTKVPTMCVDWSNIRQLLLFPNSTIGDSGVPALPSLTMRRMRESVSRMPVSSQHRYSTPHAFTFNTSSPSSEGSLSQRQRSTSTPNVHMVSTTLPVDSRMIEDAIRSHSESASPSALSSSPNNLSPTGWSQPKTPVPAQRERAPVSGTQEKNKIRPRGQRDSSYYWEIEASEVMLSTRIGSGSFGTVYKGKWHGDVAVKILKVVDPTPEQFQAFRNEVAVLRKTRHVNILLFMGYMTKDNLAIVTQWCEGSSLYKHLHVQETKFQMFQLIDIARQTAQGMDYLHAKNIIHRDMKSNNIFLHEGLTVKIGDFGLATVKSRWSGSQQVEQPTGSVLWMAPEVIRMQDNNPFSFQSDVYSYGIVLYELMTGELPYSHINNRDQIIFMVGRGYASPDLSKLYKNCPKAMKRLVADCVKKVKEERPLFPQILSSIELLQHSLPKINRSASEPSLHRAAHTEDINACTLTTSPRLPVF

B-Raf, sequence (P15056 whole entry): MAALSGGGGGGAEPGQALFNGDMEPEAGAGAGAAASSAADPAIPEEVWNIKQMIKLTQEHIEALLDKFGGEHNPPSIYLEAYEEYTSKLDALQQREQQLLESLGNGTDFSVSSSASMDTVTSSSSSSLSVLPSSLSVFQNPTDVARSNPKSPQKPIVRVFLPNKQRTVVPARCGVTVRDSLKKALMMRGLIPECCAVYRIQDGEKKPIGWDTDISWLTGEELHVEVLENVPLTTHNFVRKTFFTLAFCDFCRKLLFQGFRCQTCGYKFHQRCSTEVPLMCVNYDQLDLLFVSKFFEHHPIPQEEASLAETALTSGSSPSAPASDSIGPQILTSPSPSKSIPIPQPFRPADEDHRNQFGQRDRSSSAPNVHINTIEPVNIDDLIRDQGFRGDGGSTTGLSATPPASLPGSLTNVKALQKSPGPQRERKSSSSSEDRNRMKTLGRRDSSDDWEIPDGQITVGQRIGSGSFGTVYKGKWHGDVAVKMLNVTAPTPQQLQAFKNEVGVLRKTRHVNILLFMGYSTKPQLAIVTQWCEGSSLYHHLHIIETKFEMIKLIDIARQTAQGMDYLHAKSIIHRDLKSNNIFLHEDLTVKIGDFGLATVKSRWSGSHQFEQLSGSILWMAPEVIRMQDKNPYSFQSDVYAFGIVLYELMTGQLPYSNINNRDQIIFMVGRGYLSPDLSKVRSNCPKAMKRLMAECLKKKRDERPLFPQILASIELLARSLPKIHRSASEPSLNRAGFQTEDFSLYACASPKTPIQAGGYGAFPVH
CYP3A4(BFC), sequence (P08684 whole entry): as the sequence (P08684 whole entry) above

`C#Cc1cnc2[nH]cc(C(=O)c3c(F)ccc(NS(=O)(=O)CCC)c3F)c2c1` [P-2260, Propane-1-sulfonic acid [3-(5-ethynyl-1H-pyrrolo[2,3-b]pyridine-3-carbonyl)-2,4-difluoro-phenyl]-amide]: the IC50 on B-Raf is < 0.01 µM; on CYP3A4(BQ), 5 to 10 µM; at A-Raf it was < 0.01 µM; at CYP3A4(BFC), < 5 µM; at c-Raf-1, < 0.01 µM. Besides, in the data set on Colo205 xenograft, 10 mg/kg produced 79% inhibition in vivo. Also, the “turbidity threshold (L, M, H) 7.4” value in data set [1] (HEPES pH 7.4) was “L (low solubility if the threshold concentration is <31.3 04)”. For the same compound, the “turbidity threshold (L, M, H) 4.5” value in data set [1] (SIF pH 4.5) is recorded as “L (low solubility if the threshold concentration is <31.3 04)”. Moreover, the “turbidity threshold (L, M, H) 6.8” value in data set [1] (SIF pH 6.8) was “L (low solubility if the threshold concentration is <31.3 04)”. Further, in data set [1] (buffer pH 1.4 (SGF)), the “turbidity threshold (L, M, H) 1.4” value is listed as “L (low solubility if the threshold concentration is <31.3 04)”.

As usually defined, the IC50 is the concentration needed to halve the response being measured. What is called inhibition in vivo is the change of the read-out against control, counted positive when it falls.

The values above are taken from patent US8198273B2, “Compounds and methods for kinase modulation, and indications therefor” (Plexxikon Inc., priority 2009, dated 2012).
